Paper PMC6433934, “Preclinical Evaluation of Bispecific Adaptor Molecule Controlled Folate Receptor CAR-T Cell Therapy With Special Focus on Pediatric Malignancies” (Frontiers in Oncology, 2019)

What was measured:
[1] = tested on: OV90; assay: EC17 dose response, co-culture with E2-CAR-T cells, LDH specific lysis; type: cell-based; conditions: OV90, E/T 1:1, 24 h co-culture
From the text: To investigate EC17 CAM action in vitro, pure EGFRt-sorted CD4 and CD8 CAR-T cells were admixed in a 1:1 ratio and matching mock-transduced T cells were included per experimental design. Other than FR+/- isogenic pairs of AML and osteosarcoma cell lines, we added KB, MDA-MB-231 and OV90 to represent different histological tumor types and FR expression levels. All FR+ target cell lines were subjected to a direct ^3H-FA binding assay to quantitate the number of FR molecules bound/cell ([38]). Prior to co-culture experiments, cryopreserved CAR-T cells were allowed to recover for 2–3 days in T cell culture medium. All effector and target cells were pre-washed with FFRPMI to remove any exogenous FA that could compete against EC17. […]
For an EC17 dose response study, FR+ cancer cell lines (KB, MDA-MB-231, HOS-FRα, THP1-FRβ, OV90) were co-cultured with EGFRt-sorted E2-CAR-T cells at an effector-to-target (E/T) ratio of 1:1 in the presence of EC17 ranging from 0.1 pM to 100 μM in 10-fold increments. After 24 h of co-culture, supernatants were harvested to determine target cell killing by Promega's CytoTox 96® LDH assay kit and expressed as specific lysis (%) normalized to basal levels in the absence of EC17. […] The kinetics of target cell killing (i.e., % specific lysis) were quantified after 16 and 48 h of co-culture and normalized to basal levels in the absence of EC17 at defined E/T ratios. […]

[2] = EC17 dose finding safety study, tumor-free mice; type: in vivo; design: key to CRS grade: 0: normal (no CRS); 1: mild; 2: light-to-moderate; 3–4: severe CRS; 5: death (due to severe CRS); conditions: ~10 million E2-CAR-T cells
From the text: For MDA-MB-231 studies, mice received a high dose (~10 million) of a “clinical facsimile” of E2-CAR-T cells (~39% EGFRt+) with a low differentiation profile. Two days later, we started them with 3 different treatment regimens of EC17 at an average tumor size of ~293 ± 39 mm^3. The EC17 dosing was given once-a-week (SIW) at 500 nmol/kg on Mondays, or as escalating doses of 5, 50, or 100, and 500 or 1,000 nmol/kg on Monday, Thursday, and Monday with a 6 day break in-between cycles. Control mice were left untreated (received CAR-T cells but no EC17). For comparison, a cohort of tumor-free littermates also received the same number of CAR-T cells without or with EC17 SIW at 500 nmol/kg. To study the effect of high dietary folate, two sets of NSG mice were placed on either a FA-replete diet (4 mg/kg, Envigo, Indianapolis, IN) or a FA-deficient diet (TestDiet, St. Louis, MO) upon arrival. […]
Depending on the CAR-T cell dose and how EC17 is administered, tumor-bearing mice receiving FITC-specific CAR-T cells can experience severe CRS and varying degrees of body weight loss ([27], [33], [34]). […] On the days immediately following each EC17 dose, animals were scored and rescue agents such as sodium fluorescein, folic acid and leucovorin were used to mitigate CRS toxicity ([33]). […]

## Nc1nc2ncc(CNc3ccc(C(=O)NC(CCC(=O)NCCNC(=S)Nc4ccc(-c5c6ccc(=O)cc-6oc6cc(O)ccc56)c(C(=O)O)c4)C(=O)O)cc3)nc2c(=O)[nH]1 (stereo not shown) [EC17, FA-(γ)-ethylenediamine-FITC]
[1]; Homo sapiens, OV-90, curve fitted up to 100 nM
  EC50: 0.418 nM
[1]
  Max. lysis: 15%
[2]; 2 weekly doses EC17 500 nmol/kg, 0–5 scale
  CRS grade: 0
[2]; EC17 SIW 500 nmol/kg
  CAR-T cell expansion by flow cytometry: no CAR-T cell expansion was detected
